# Assay results published in patent US8563258B2, “Allergy test based on flow cytometric analysis” (Buhlmann Laboratories AG, priority 2007, dated 2013).
# Where two headings read alike, the source gives them in different places.
# Experiments:
# basophils [1] = assay: Alternative use of FcεRI instead of IgE as basophil selection/activation marker (Example 7); type: cell-based, human; conditions: for MFI Activation Index (anti-FcεRI-AF647 and anti-IgE-AF647): Amoxicillin allergic patient
# basophilic cells = conditions: for MFI-CCR3 shift (cytotoxic concentration): human
# Text: In Protocol 1 anti-IgE-FITC is used as the basophil selection marker, whereas in Protocol 2 anti-CCR3-PE is used.
# basophils [2] = test system: basophils
# Text: Peripheral blood leukocytes are isolated from patients' whole blood samples and primed with Stimulation Buffer containing interleukin 3 (IL-3). […] During this activation intracellular compounds containing the transmembrane protein CD63 are fused to the cellular membrane and therefore exposed to the extracellular matrix.
# A highly specific monoclonal antibody (mAb) recognizing the high affinity IgE binding receptor (FcεRI) is used as a positive control, leading to the activation of the basophils by mimicking the bridging event.
# After stopping the reaction the Staining Reagent is added containing a mixture of monoclonal antibodies to human CD63 labeled with phycoerythrin (anti-CD63-PE) and to human IgE labeled with fluorescein isothiocyanate (anti-IgE-FITC). The remaining erythrocytes are removed by a lysing reaction and after blocking the reaction the cells are analyzed by flow cytometry.
# Mix the anti-coagulated blood sample by inverting the venipuncture tube several times. Centrifuge the venipuncture tube for 5 minutes at 200×g. After the centrifugation step, two phases can be observed from top to the bottom of the tube: • i) plasma fraction containing the leukocytes • ii) erythrocyte fraction • Alternative procedure for cell separation: • Mix the anti-coagulated blood sample by inverting the venipuncture tube several times. • Let the samples sediment (erythrocytes) at room temperature for one hour. Collect the upper phase (plasma fraction containing the leukocytes) and continue with step 2. • If the erythrocytes sedimentation is not complete after one hour of incubation, the centrifugation step above is recommended. • 2. Collect the plasma fraction with the leukocytes on the top of the erythrocytes with a disposable plastic syringe or plastic pipette and transfer it into a fresh and pyrogen-free 5 ml polypropylene or polystyrene tube. • NOTE: Because of the low amount of basophils in the leukocyte fraction it is important to collect the entire plasma fraction. […] Centrifuge for 10 minutes at 500×g. Completely remove the plasma fraction on the top of the cell pellet with a pipette. • 4. Add 100 μl of Stimulation Buffer per ml of blood used at the beginning (i.e. for 5 ml blood sample used, the pellet has to be solved with 500 μl of Stimulation Buffer). Resuspend the leukocytes pellet carefully. • 5a. For each patient, label pyrogen-free polystyrene tubes suited for Flow Cytometry measurements (e.g., PB=patient background=negative control, PC=stimulation control with anti-FcεRI Ab, A1-1 for antigen 1 with dilution 1, A1-2 for allergen 1 with dilution 2, etc.) or use tissue culture grade microtiter plates. • 5b. Pipet 50 μl of Stimulation Buffer (background 0 negative control) into the PB tube of each patient. • 5c. Pipet 50 μl of Stimulation Control into the PC tube of each patient. • 5d. Pipet 50 μl of Allergen (=test substance) into the corresponding patient tubes. • 6. Pipet 50 μl of each patient's cell suspension into the corresponding tubes. • 7. Vortex gently, cover the tubes and incubate for 40±5 minutes at 37° C. in a water bath. • 8. Add 50 μl of cold Blocking Buffer to each tube. • 9. Add 20 μl of cold Staining Reagent to each tube. Vortex gently. • 10. Incubate for 30±5 minutes at 2-8° C. • 11. Vortex gently the sedimented cells, add 3.5 ml of pre-warmed (18-28° C.) Lysing Reagent to each tube and incubate for 5±1 minutes at 18-28° C. • 12. Stop the reaction with 1 ml of Blocking Buffer. • 13. Centrifuge for 5 minutes at 1000-1200×g. • 14. Decant or aspirate the supernatant and resuspend the cell pellet with 500 μl of Blocking Buffer. Vortex gently. • 15. Proceed to the analysis by Flow Cytometry within 2 hours.
# Flow cytometric analysis can be performed on any flow cytometer containing a 488 nm argon laser (blue-green excitation light) and the corresponding software.
# blood basophils = conditions: 21 normal blood donors
# Procedure: Therefore, we established two protocols, one with diluted whole blood, wherein the EDTA blood sample is diluted 1 in 4 with cellular incubation buffer (the Stimulation Buffer) and another with purified blood, wherein the basophils were transferred from its plasma matrix to a plasma-free matrix such as the cellular incubation buffer by centrifuging and washing the blood cells.
smiles,measurement,setting,value
CC1(C)S[C@@H]2[C@H](NC(=O)[C@H](N)c3ccc(O)cc3)C(=O)N2[C@H]1C(=O)O [Amoxicillin],MFI Activation Index (anti-FcεRI-AF647 and anti-IgE-AF647),basophils [1]; 0.04 mg/ml (C3),negative
same,MFI Activation Index (anti-FcεRI-AF647 and anti-IgE-AF647),basophils [1]; 0.2 mg/ml (C2),intermediate
same,MFI Activation Index (anti-FcεRI-AF647 and anti-IgE-AF647),basophils [1]; 1 mg/ml (C1),strong activation
same,CCR3 positive cells after stimulation,"basophilic cells; 2 mg/ml, CCR3 selection marker",can still be easily identified
same,IgE positive basophilic cells after stimulation,"basophilic cells; 2 mg/ml, IgE selection marker",disappearing
same,"result of all methods tested (CD63 expression, combined Activation Index, spIgE, skin test)",basophils [2]; Patient 4 (control subject),negative result
same,combined MFI-IgE/CD63 Activation Index,basophils [2]; Patient 5,positive result
same,CD63 expression,"basophils [2]; Patient 5, cutoff 5% plus SI≧2",negative
CC(=O)Oc1ccccc1C(=O)O [Aspirin],MFI-CCR3 shift (cytotoxic concentration),basophilic cells; 5 mg/ml,clearcut downregulation of MFI-CCR3
same,combined MFI-IgE/CD63 Activation Index,basophils [2]; Patient 8,positive results
same,CD63 expression,basophils [2]; Patient 9,clearcut reaction
same,combined MFI-IgE/CD63 Activation Index,basophils [2]; Patient 9,clearcut reaction
O=C(O)Cc1ccccc1Nc1c(Cl)cccc1Cl [Diclofenac],CD63 expression,basophils [2]; Patient 9,clearcut reaction
same,combined MFI-IgE/CD63 Activation Index,basophils [2]; Patient 9,clearcut reaction
CC(C)Cc1ccc(C(C)C(=O)O)cc1 (stereo not shown) [Ibuprofen],combined MFI-IgE/CD63 Activation Index,basophils [2]; Patient 8,positive results
same,CD63 expression,basophils [2]; Patient 9,clearcut reaction
same,combined MFI-IgE/CD63 Activation Index,basophils [2]; Patient 9,clearcut reaction
COc1ccc2cc([C@H](C)C(=O)O)ccc2c1 [Naproxen],MFI-CCR3 shift (cytotoxic concentration),basophilic cells; 1 mg/ml,clearcut downregulation of MFI-CCR3
same,MFI-CCR3 shift (cytotoxic concentration),basophilic cells; 5 mg/ml,clearcut downregulation of MFI-CCR3
same,unspecific stimulatory effects on basophils,"blood basophils; 1 mg/ml, washed blood cells",unspecific stimulatory effects
same,cytotoxic effects on blood basophils,"blood basophils; 5 mg/ml, all blood preparation methods",cytotoxic effects
"CSCC[C@H](NC=O)C(=O)N[C@@H](CC(C)C)C(=O)N[C@@H](Cc1ccccc1)C(=O)O [fMLP, N-formyl-L-methionyl-L-leucyl-L-phenylalanine]",stimulation yield as alternative positive control,basophils [1]; compared with anti-FcεRI mAb,lower stimulation yields than anti-FcεRI mAb
